“Also recorded” adds a separate entry of the source. Marks after values point to notes of the source that are not given here.
Legend:
T-suppressors [1] = assay: Immune system of monkeys: T-suppressors, flow cytofluorografic analysis; assay type: in vivo, Macaque Rh. monkeys; settings: for T-suppressor: single IV 25 μg/kg; for T-suppressors: single IV 50 μg/kg
Procedure: (§1) Immunosuppressive activity of the prototype 2'-5'A3 and two analogues (2'-5')A2 Ar-epoxy and (2'-5')A2 A^l-epoxy were investigated in monkeys. The experiments were performed on 4 year-old Macaque Rh. monkeys. The levels of the principal subpopulations of T-lymphocytes, IgA, IgG, IgM and the amount of α- and γ-interferon and interleukin II after administration (2'-5')olygoadenylate and its analogies at the concentration of 50 and 25 μg/kg of the body weight was investigated.
(§2) FLOW CYTOFLUOROGRAFIC ANALYSIS OF LYMPHOCYTE SUBSETS
(§3) Blood samples (100 μl of whole blood) were placed into a 12×17 tube. To these cells 20 μl of purified monoclonal antibodies were added with specificity for human cytotoxic/suppressor cells anti-Leu-2a (CD8), human helper/inducer anti-Leu-3a (CD4) and FITC conjugated monoclonal antibodies with specificity for natural killer cells-anti-Leu11c (CD16) (Becton Dickinson, San Jose). After 30 minutes incubation on ice, the cells were washed once and 20 μl of goat-antimouse chain phycoerythrin (Sigma P1286) conjugate were added to the tube with anti-Leu-2a and anti-Leu-3a monoclonal antibodies.
(§4) After erythrocyte lysing with FACS lysing solution (Becton Dickinson, San Jose) the cells were analyzed on FACScan flow cytometer (Becton Dickinson, San Jose) with scatter gate set on lymphocyte fraction.

T-killers [2] = assay: Immune system of monkeys: T-killers, flow cytofluorografic analysis; assay type: in vivo, Macaque Rh. monkeys
Procedure: as §1, with “The” for “Immunosuppressive activity of the prototype 2'-5'A3 and two analogues (2'-5')A2 Ar-epoxy and (2'-5')A2 A^l-epoxy were investigated in monkeys. The”
as §2, §3, §4

T-suppressors [3] = assay: T-suppressors in monkeys after kidney transplantation; assay type: in vivo, Macaque Rh. monkeys; settings: for T-suppress: 50 μg/kg IV, 2 days pre-op. 44
Procedure: as §2, §3, §4
(§5) The experiments were performed on 4 year-old Macaque Rh. monkeys. Each cohort consisted of 3 animals. […] The results of the experiments were evaluated clinically: by the presence or absence of urination from the ureterocutaneostoma.
After intravenous anesthesia with Ketalar®, an extraperitoneal access to the left kidney was performed through layer by layer cuts to the left lumbar region. The kidney was excised from the surrounding tissues. A clamp was applied to the vessel limb; the artery, the vein and the ureter each were prepared for anastomosis separately. The kidney was excised and transferred for hypothermal conservation in Collins' solution.
The donor kidney was transplanted into the recipient. […] anastomosis was performed: the graft arteries and veins attached to the appropriate recipient kidney vessels through plastic tubes. The kidney having been resuscitated by in blood flow, acquired the normal color and turgor. Additional hemostasis in the wound was performed. Ureterocutaneostomy was performed, which was followed by applying layer-upon-layer sutures on the wound and its aseptic dressing.
The monkeys were narcotized by means of the intravenous anesthesia with Ketalar® and subjected to medial laparotomy from the xiphoid down to the pubic joint. Access to the left Kidney was made extraperitoneally. The kidney was teased from the surrounding tissues. A clamp was put on the vessel limb; the artery, the vein and the ureter were dressed separately; the kidney was cut and transferred for hypothermal conservation in Collins' solution.
The internal iliac artery and the external iliac vein were extracted extra-peritoneally, immobilized and prepared for anastomosis. The donor kidney was transferred to the recipient. Vessel anastomosis was performed: the graft arteries were anastomosed with the internal iliac artery according to the end-to-end method and the graft veins were anastomosed with the external iliac vein according to the end-to-side method. The kidney having been engaged in blood flow, acquired a normal color and turgor. Bleeding on the line of the arterial anastomosis was stopped by making additional sutures. Ureterocutaneostomy was performed. The abdominal cavity was lavaged with the solution of disodium carbenicillin. Layer-upon-layer sutures on the wound were applied. Aseptic dressing was performed.
During our experiments we have divided monkeys into two groups, three monkeys to each group. For the first group (2'-5')A2 Ar-epoxy was administered intravenously at concentration of 50 μg/kg two days before the operation and at the second, sixth, and twelfth day after the operation and then every sixth day. […] After transplantation kidney functions were restored within 10 hours.
The administration schedule of (2'-5')A2 Ar-epoxy was modified slightly for the second group of monkeys. The preparation was injected two days before the operation and every other day at a concentration of 50 μg/kg during the entire post-transplantation period. […] The number of T-helpers dropped correspondingly from 37% to 7%. […] During the entire postoperative period, this activity tendency continues.

T-killers [4] = assay: T-killers in monkeys after kidney transplantation; assay type: in vivo, Macaque Rh. monkeys; settings: second group, 50 μg/kg every other day
Procedure: as §2, §3, §4, §5
After intravenous anesthesia with Ketalar®, an extraperitoneal access to the left kidney was performed through layer by layer cuts to the left lumbar region. The kidney was excised from the surrounding tissues. […]

lymphocytes = assay: Lymphocyte blast-transformation reaction in operated rabbits; assay type: in vivo, chinchilla rabbits
Procedure: Immunosuppression was performed by IV injection of (2'-5')A2 Ar-epoxy at a dose of 5 μg per 1.0 kg body weight at 0.1 ml of the physiologic solution daily until the conclusion of the experiment. During the first two weeks of the post-operative period, blood was taken for immunological analysis; BTR with PHA and Concanavalin A were tested.
Lymphocyte Blast-Transformation Reaction in Operated Rabbits

Adenylyl (2'-5')adenylyl (2'-5')-9-(2,3-anhydro-β-D-ribofuranosyl) adenine disodium salt [(2'-5')A2 Ar-epoxy]
effect on T-suppressors, in words (T-suppressors [1]; 25 and 50 μg/kg IV): suppresses the number of T-suppressor cells | T-suppressor (T-suppressors [1]; day 0 (baseline)): 47% | T-suppressor (T-suppressors [1]; day 1): 40% | T-suppressor (T-suppressors [1]; day 2): 21% | T-suppressor (T-suppressors [1]; day 4): 11% | T-suppressor (T-suppressors [1]; day 8): 11% | T-suppressor (T-suppressors [1]; day 12): 14% | T-suppressor (T-suppressors [1]; day 21): 46% | T-suppressors (T-suppressors [1]; day 0 (baseline)): 43% | T-suppressors (T-suppressors [1]; day 1): 31% | T-suppressors (T-suppressors [1]; day 2): 19% | T-suppressors (T-suppressors [1]; day 4): 12% | T-suppressors (T-suppressors [1]; day 8): 7.4% | T-suppressors (T-suppressors [1]; day 12): 13% | T-suppressors (T-suppressors [1]; day 21): 44% | T-killers (T-killers [2]; single IV 25 μg/kg, day 0 (baseline)): 9.9% | T-killers (T-killers [2]; single IV 25 μg/kg, day 1): 12% | T-killers (T-killers [2]; single IV 25 μg/kg, day 2): 8% | T-killers (T-killers [2]; single IV 25 μg/kg, day 4): 4% | T-killers (T-killers [2]; single IV 25 μg/kg, day 8): 4% | T-killers (T-killers [2]; single IV 25 μg/kg, day 12): 4% | T-killers (T-killers [2]; single IV 25 μg/kg, day 21): 6.4% | T-killers (T-killers [2]; single IV 50 μg/kg, day 0 (baseline)): 12% | T-killers (T-killers [2]; single IV 50 μg/kg, day 1): 9% | T-killers (T-killers [2]; single IV 50 μg/kg, day 2): 7% | T-killers (T-killers [2]; single IV 50 μg/kg, day 4): 1.5% | T-killers (T-killers [2]; single IV 50 μg/kg, day 8): 4.4% | T-killers (T-killers [2]; single IV 50 μg/kg, day 12): 9% | T-killers (T-killers [2]; single IV 50 μg/kg, day 21): 19.3% | T-suppress (T-suppressors [3]; day 1 post-op.): 40.6% | T-suppress (T-suppressors [3]; day 5 post-op.): 44% | T-suppress (T-suppressors [3]; day 8 post-op.): 47% | T-suppress (T-suppressors [3]; day 13 post-op.): 47.7% | T-suppress (T-suppressors [3]; day 18 post-op.): 57.5% | effect on T-suppressors in transplanted animals, in words (T-suppressors [3]; post-transplantation, 50 μg/kg, disodium salt): stimulates the number of T-suppressor cells in transplanted monkeys; also recorded: stimulates somewhat the number of T-suppressors | quantity of T-suppressors (T-suppressors [3]; second group, 50 μg/kg every other day, 7 days after surgery, presurgical 44%): 49% | T-killers, in words (T-killers [4]): Analogous suppression effect | DNA synthesis by [^3 H]-thymidine incorporated (lymphocytes; Con A, Group 1, 2 weeks post-op., pre-op. 12.6): 1.6 cpm(×10^3) | DNA synthesis by [^3 H]-thymidine incorporated (lymphocytes; Con A, Group 1, 48 h. post-op., pre-op. 12.6): 1.6 cpm(×10^3) | DNA synthesis by [^3 H]-thymidine incorporated (lymphocytes; Con A, Group 2, 2 weeks post-op., pre-op. 11.0): 5.0 cpm(×10^3) | DNA synthesis by [^3 H]-thymidine incorporated (lymphocytes; Con A, Group 2, 48 h. post-op., pre-op. 11.0): 4.4 cpm(×10^3) | DNA synthesis by [^3 H]-thymidine incorporated (lymphocytes; PHA 10, Group 1, 2 weeks post-op., pre-op. 6.0): 1.5 cpm(×10^3) | DNA synthesis by [^3 H]-thymidine incorporated (lymphocytes; PHA 10, Group 1, 48 h. post-op., pre-op. 6.0): 0.9 cpm(×10^3) | DNA synthesis by [^3 H]-thymidine incorporated (lymphocytes; PHA 10, Group 2, 2 weeks post-op., pre-op. 7.0): 2.1 cpm(×10^3) | DNA synthesis by [^3 H]-thymidine incorporated (lymphocytes; PHA 10, Group 2, 48 h. post-op., pre-op. 7.0): 2.4 cpm(×10^3) | DNA synthesis by [^3 H]-thymidine incorporated (lymphocytes; PHA 20, Group 1, 2 weeks post-op., pre-op. 2.1): 1.6 cpm(×10^3) | DNA synthesis by [^3 H]-thymidine incorporated (lymphocytes; PHA 20, Group 1, 48 h. post-op., pre-op. 2.1): 1.2 cpm(×10^3) | DNA synthesis by [^3 H]-thymidine incorporated (lymphocytes; PHA 20, Group 2, 48 h. post-op., pre-op. 1.4): 5.5 cpm(×10^3) | DNA synthesis by [^3 H]-thymidine incorporated (lymphocytes; Spontaneous, Group 1, 48 h. post-op., pre-op. 0.648): 0.306 cpm(×10^3) | DNA synthesis by [^3 H]-thymidine incorporated (lymphocytes; Spontaneous, Group 2, 48 h. post-op., pre-op. 0.597): 0.274 cpm(×10^3) | suppression of lymphocyte blast-transformation stimulated with Con A (lymphocytes; post-transplanted rabbits, IV 5 μg/kg): ~10 fold | lymphocyte blast-transformation reaction, in words (lymphocytes; two weeks following the operation): inhibition of the lymphocyte blast-transformation reaction

— patent US5571799A, “(2'-5') oligoadenylate analogues useful as inhibitors of host-v5.-graft response” (Basco, Ltd., priority 1994, dated 1996)
